Measurements: ChEMBL document CHEMBL3108693, “Design, synthesis, and osteogenic activity of daidzein analogs on human mesenchymal stem cells” (2014)
Active and inactive are the calls of the source. The rule behind the calls is not given here.

Key:
Assay type in all cases: functional
[1] = (§1) Induction of osteogenic activity in human MSC assessed as cell differentiation at 1 uM after 14 days by alizarin red staining-based spectrometry relative to vehicle-treated control
MSC [2] = experiment: Induction of osteogenic activity in human MSC assessed as cell differentiation after 14 days by alizarin red staining-based spectrometry relative to vehicle-treated control
MSC [3] = experiment: Induction of osteogenic activity in human MSC assessed as cell differentiation at 1 uM after 7 days by alizarin red staining-based spectrometry relative to vehicle-treated control
MSC [4] = experiment: Induction of osteogenic activity in human MSC assessed as increase in Cola1 level at 1 uM after 14 days by quantitative RT-PCR analysis relative to control
MSC [5] = experiment: Induction of osteogenic activity in human MSC assessed as increase in cbfa1 level at 1 uM after 14 days by quantitative RT-PCR analysis relative to control
MSC [6] = experiment: Induction of osteogenic activity in human MSC assessed as increase in ALP level at 1 uM after 14 days by quantitative RT-PCR analysis relative to control
MSC [7] = experiment: Induction of osteogenic activity in human MSC assessed as increase in IGF1 level at 1 uM after 14 days by quantitative RT-PCR analysis relative to control
MSC [8] = experiment: Induction of osteogenic activity in human MSC assessed as increase in cFOS level at 1 uM after 14 days by quantitative RT-PCR analysis relative to control
MSC [9] = experiment: Induction of osteogenic activity in human MSC assessed as increase in OP level at 1 uM after 14 days by quantitative RT-PCR analysis relative to control
MSC [10] = experiment: Induction of osteogenic activity in human MSC assessed as increase in ON level at 1 uM after 14 days by quantitative RT-PCR analysis relative to control
MSC [11] = experiment: Induction of osteogenic activity in human MSC assessed as increase in Dlx5 level at 1 uM after 14 days by quantitative RT-PCR analysis relative to control
MSC [12] = experiment: Induction of osteogenic activity in human MSC assessed as increase in Sp7 level at 1 uM after 14 days by quantitative RT-PCR analysis relative to control
MSC [13] = experiment: Induction of osteogenic activity in human MSC assessed as cell differentiation at 10 nM after 14 days by alizarin red staining-based spectrometry
MSC [14] = experiment: as §1

Row | SMILES | fold change (FC) [1] | Activity (MSC [2]) | further results
1 | O=c1c(-c2ccc(O)cc2)coc2cc(OCCN3CCCCC3)ccc12 | >2.4 | Dose-dependent effect | –
2 | CC1(C)CCc2c(ccc3c2OCC(c2ccc(O)cc2)C3)O1 (centres undefined) | – | Dose-dependent effect | –
3 | CC1(C)CCc2c(ccc3c2OCC(c2ccc(O)cc2)C3=O)O1 (centres undefined) | 1.6 | Dose-dependent effect | –
4 | CCOc1ccc2c(=O)c(-c3ccc(O)cc3)coc2c1 | 1.6 | Dose-dependent effect | –
5 | CC(C)Oc1ccc2c(=O)c(-c3ccc(O)cc3)coc2c1 | 1.6 | Dose-dependent effect | –
6 | CCCOc1ccc2c(=O)c(-c3ccc(O)cc3)coc2c1 | 1.3 | Dose-dependent effect | Activity (MSC [3]): Active; Activity (MSC [4]): Active; Activity (MSC [5]): inactive; Activity (MSC [6]): Active; Activity (MSC [7]): Active; Activity (MSC [8]): inactive; Activity (MSC [9]): Active; Activity (MSC [10]): inactive; Activity (MSC [11]): inactive; Activity (MSC [12]): Active
7 | C=CCOc1ccc2c(=O)c(-c3ccc(O)cc3)coc2c1 | 1.3 | Dose-dependent effect | Activity (MSC [3]): Active
8 | CC(C)COc1ccc2c(=O)c(-c3ccc(O)cc3)coc2c1 | 1.3 | Dose-dependent effect | Activity (MSC [3]): Active
9 | COc1ccc(NC(=O)c2ccc(OC)cc2OC)cc1 | 1.3 | Dose-dependent effect | –
10 | CCCCOc1ccc2c(c1)OCC(c1ccc(O)cc1)C2 (centres undefined) | – | Dose-dependent effect | –
11 | CCCCOc1ccc2c(=O)c(-c3ccc(O)cc3)coc2c1 | 1.3 | Dose-dependent effect | –
12 | C#CCOc1ccc2c(=O)c(-c3ccc(O)cc3)coc2c1 | 1.6 | Dose-dependent effect | –
13 | Cc1cc2c(ccc3c(=O)c(-c4ccc(O)cc4)coc32)o1 | 1.6 | Dose-dependent effect | –
14 | CC1(C)C=Cc2cc3c(cc2O1)OCC(c1ccc(O)cc1)C3 (centres undefined) | 1.3 | Dose-dependent effect | –
15 | CC1(C)C=Cc2c(ccc3c(=O)c(-c4ccc(O)cc4)coc23)O1 | – | Dose-dependent effect | –
16 | CC1(C)C=Cc2c(ccc3c(=O)c(-c4ccc(B5OC(C)(C)C(C)(C)O5)cc4)coc23)O1 | – | Dose-dependent effect | –
17 | COc1ccc(C(=O)Nc2ccc(OCC(C)C)cc2)c(OC)c1 | 1.6 | Dose-dependent effect | –
18 | CC#C[C@]1(O)CC[C@H]2[C@@H]3CCc4cc(O)ccc4[C@H]3CC[C@@]21C | – | – | Activity (MSC [13]): Active
19 | CCCCCCOc1ccc2c(=O)c(-c3ccc(O)cc3)coc2c1 | 1.3 | Dose-dependent effect | –
20 | COc1ccc(C(=O)Nc2ccc(O)cc2)c(OC)c1 | 1.3 | Dose-dependent effect | –
21 | O=c1c(-c2ccc(O)cc2)coc2cc(OC3CCCC3)ccc12 | 1.3 | Dose-dependent effect | Activity (MSC [3]): Active
22 | CN(C)CCOc1ccc2c(=O)c(-c3ccc(O)cc3)coc2c1 | – | Dose-dependent effect | –
23 | O=c1c(-c2ccc(O)cc2)coc2cc(OCCN3CCCC3)ccc12 | – | Dose-dependent effect | –
24 | O=c1c(-c2ccc(O)cc2)coc2cc(O)ccc12 | – | Dose-dependent effect | Activity (MSC [14]): Active
